From a melting point compilation (Tetko et al.; mined from patent text by program, amines drawn as free bases though some values may be those of a salt)

| melting point | Compound |
| --- | --- |
| 296 to 297 °C | CSc1nc2c([nH]1)N(Cc1ccc(Cl)cc1)C1NCCN1C2=O (configuration not stated) |
| 270 °C | CNc1ncc2c(-c3cccc(Cl)c3)cc(-c3cccc(C(=O)O)c3)c(OC)c2n1 |
| 104 to 106 °C | Cc1cc(O)c(S(=O)(=O)CC2CCCCC2)c(=O)o1 |
| 118 to 120 °C | COc1cc2c(cc1Cl)CC(C)OC2c1ccc([N+](=O)[O-])cc1 (configuration not stated) |
| 161 to 164 °C | CCOc1nc2c(N)nc(OCCc3ccccc3)nc2n1CC |
| 148 °C | COc1cc2c(c(C(C(N)=O)c3ccccc3)c1)CC(C)O2 (configuration not stated) |
| 138 to 139 °C | O=C(O)CCc1cc(-c2ccc(Cl)cc2)n(-c2ccccc2)n1 |
| 117 to 118 °C | COc1cc(CC(CO)NC(=O)c2ccccc2)cc(OC)c1 (configuration not stated) |
| 138 to 140 °C | COC(=O)c1ccc(C[C@@H]2COc3ccc(OCc4ccc5ccccc5n4)cc3[C@H]2O)cc1 (relative stereo) |
| 188 to 190 °C | Cc1nc2cc3c(cc2o1)C1(CO3)C(=O)N(CC2CCCO2)c2ccccc21 (configuration not stated) |
| 306 to 307 °C | CS(=O)(=O)Nc1ccc(Cc2n[nH]c3c2c(=O)n(-c2ccccc2)c2ncccc32)cc1 |
| 176 to 177 °C | COc1ccc(C2=NN(c3nc4ccccc4s3)C(=O)[C@H]3CC=CC[C@@H]23)cc1OC (relative stereo) |
| 206 to 208 °C | COc1ccc(C(=S)Nc2ccccc2)cc1NS(=O)(=O)c1cc(Cl)cc(Cl)c1 |
| 96 °C | CCCC12COC(c3ccc(Cl)cc3)(CC1=O)OC2 |
| 221 to 223 °C | CN1CC[C@@H](c2c(O)cc(O)c3c(=O)cc(-c4cccc(F)c4Cl)oc23)[C@@H]1CO |
| 145 °C | Cc1coc2c(C(=O)c3cccs3)cc(C(C)(C)C)c(O)c12 |
| 158 to 159 °C | Cc1cccc(C2NS(=O)(=O)c3ccccc32)c1 (single isomer, unassigned; (+)) |

| melting point | Compound |
| --- | --- |
| 135 to 139 °C | CC(=O)Nc1ccc(C2COC(=O)O2)cn1 (configuration not stated) |
| 202 to 204 °C | CCOCc1nc2c(N)nc3cc(-c4cccnc4)ccc3c2n1CC(C)(C)OCCS(C)(=O)=O |
| 158 to 159 °C | CC(=O)N[C@@H](C)COc1cnc(-c2nc3ccc(OCC4CC4)cc3o2)c(F)c1 |
| 199 to 200 °C | COc1ccnc(CCc2nc3cc(-c4ccc(S(=O)(=O)NC5CCCCC5)cc4)cnc3[nH]2)c1 |
| 140 to 142 °C | O=C(CCCc1ccc(Cl)cc1)c1ccc(OCc2ccc3ccccc3n2)cc1 |
| 170 to 172 °C | CCOCc1nc2c(N)nc3ccccc3c2n1CCCCS(=O)(=O)NC |
| 97 to 98 °C | CCN1C(=O)Cc2cc(C(=O)OC)ccc21 |
| 249 to 254 °C | Cc1cc2c(c3c1sc1ccc(O)cc13)C(=O)N(CCN(C)C)C2=O |
| 185 to 186 °C | S=C1Nc2ccccc2N2CCc3cccc1c32 |
| 105 to 106 °C | C(=C\C1CCCCC1)/c1nc2ccccc2n1-c1ccccn1 |
| 157 °C | CCC(=O)Cc1ccc(C(=O)Nc2ccc3cc(CN4CCCC4)cnc3c2C)cc1 |
| 127 to 129 °C | COC1(Nc2ccccc2CCCc2ccc(Cl)c(Cl)c2)CC=C(C(=O)O)C=C1[N+](=O)[O-] (configuration not stated) |
| 107 to 108 °C | Cc1c(C)c2c(c(C)c1NCc1ccccc1)C(c1ccccc1)CO2 (configuration not stated) |
| 169 to 170 °C | O=C1N(CC2CCCO2)c2c(F)cccc2C12COc1cc3c(cc12)CCO3 (configuration not stated) |
| 190 to 192 °C | Cc1c(Cl)sc2c1c(-c1ccccc1)nc(=O)n2C |
| 184 to 185 °C | COc1ccc(C2C(=O)N(c3ccccc3)N(c3ccccc3)C2=O)cc1 |

The remaining lines, values behind:

| Compound | melting point |
| --- | --- |
| Cc1c(Br)ccc(S(C)(=O)=O)c1C1=NOC(CCl)(CCl)C1 | 144 to 145 °C |
| COc1cc2cc(/C=C/c3ccccc3)[nH]c2cc1OCc1ccccc1 | 140 to 145 °C |
| CC(C)N(O)C(=O)c1c(Cl)cccc1[Si](C)(C)C | 175 to 179 °C |
| O=C(c1cccs1)c1cnn2c(-c3cccc(-c4ccn(Cc5ccccn5)n4)c3)ccnc12 | 66 °C |
| CCCNC(=O)C(C)Cc1ccc2c(c1)c(Cc1ccc(C(=O)O)cc1OC)cn2C(C)C (configuration not stated) | 103 to 109 °C |
| O=C(O)Cc1cccc2c(-c3ccc(Cl)cc3)onc12 | 200 to 202 °C |
| Cc1cc(O)c(S(C)(=O)=O)cc1C(=O)N=C(N)N | > 260 °C |
| O=Cc1c(O)cccc1[N+](=O)[O-] | 52 to 53 °C |
| CCCNc1nc(N)n[nH]1 | 148 to 149 °C |
| O=S(=O)(c1ccc(C(F)(F)F)cc1)N1CCCC1c1ccc(F)cc1 (racemic) | 85 °C |
| NCCNc1n[nH]c2ncnc(Nc3cccc(Cl)c3)c12 | 200 °C |
| C#CCOCC(CC)(OC)c1cccc(OCc2ccc3ccccc3c2)c1 (configuration not stated) | 54 °C |
| O=C(O)c1cn(-c2cc(F)cc(C(F)(F)F)c2)cn1 | > 250 °C |
| CN1Cc2c(-c3noc(CCl)n3)ncn2-c2cccc(Cl)c2C1=O | 208 to 210 °C |
| COc1ccc(-n2nc(C#N)cc2-c2ccc(S(C)(=O)=O)cc2)cc1Cl | 201 to 203 °C |
| O=C(Nc1ccccc1)Nc1cc(F)ccc1C(=O)O | 163 to 166 °C |
| CCNc1nc(SC)ncc1C=Nc1cc(OC)cc(OC)c1Cl | 196 to 198 °C |
| Fc1ccc2c(C3CCC4(CC3)OCCO4)c[nH]c2c1 | 158 to 159 °C |
| Clc1ccc(CSC(CCc2ccccc2)Cn2ccnc2)cc1Cl (configuration not stated) | 144 to 146 °C |
| CC12CC(=O)C3C(C=CC4=CC(=O)CCC43C)C1CCC2=O (configuration not stated) | 237 °C |

| Compound | melting point |
| --- | --- |
| COc1cccc(C(C)CC(=O)Nc2sc3c(c2C#N)CCNC3)c1 (racemic) | 197 to 200 °C |
| CCn1cc(S(=O)(=O)NC(=O)c2cn3cc(C(F)(F)F)cc(Cl)c3n2)c(Cl)n1 | 184 to 185 °C |
| Cn1nc(-c2cc(CBr)c(Cl)cc2F)c(Cl)c1C(F)(F)F | 112 to 114 °C |
| CCn1cc(C(=O)Cl)c(=O)c2ccc(Cl)nc21 | 186 to 188 °C |
| NC(=O)c1ccc(NC(=O)C(CS)Cc2ccccc2)cc1 (configuration not stated) | 195 to 197 °C |
| N#Cc1c(-c2ccc(Cl)cc2)[nH]c(C(F)(F)F)c1Sc1ccc(Cl)c(Cl)c1 | 94 to 97 °C |
| Cc1cc(-c2[nH]c3ccc(O)cc3c2C)cc(C)c1O | 174 to 176 °C |
| CCCc1c2nc(C(=O)OCC)cc(OCC)c2cc2c(=O)cc(C(=O)OCC)oc12 | 190 to 192 °C |
| NC1N=CC=CC1(N)Br (configuration not stated) | 158 to 160 °C |
| COc1ccc(N(C)c2nc(N)nc3[nH]c4cccc(Cl)c4c23)cc1 | 163 to 164 °C |
| CCCc1ccc(-c2cc(F)c(-c3ccc(CC)s3)c(F)c2)cc1 | 45 °C |
| N#CCc1ccc(OC(F)F)c(OC2CCCC2)c1 | 39 to 41 °C |
| O=C(O)CCc1cnoc1-c1ccc(Cl)cc1Cl | 106 to 107 °C |
| COC(=O)Cc1cc(-c2ccccc2)ccc1OCc1ccc(OCc2nc(-c3ccccc3)oc2C)cc1 | 111 to 112 °C |
| CCOC(=O)N1CCN(c2ccc(C3=NNC(=O)CC3C)cc2F)CC1 (configuration not stated) | 193 to 194 °C |
| O=C(CBr)CC(=O)Nc1cccc(C(F)(F)F)c1 | 66 to 68 °C |
| COC(=O)C(CCON1C(=O)c2ccccc2C1=O)NC(=O)Cc1ccccc1 (configuration not stated) | 138 to 139 °C |
| CC(C(=O)O)c1ccc(-c2ccc(F)cc2)c(Br)c1 (configuration not stated) | 129 to 131 °C |
| CC(CCC(O)C(C)(C)O)C1CCC2C3CC=C4CC(O)CC(O)C4(C)C3CCC12C (configuration not stated) | 198 to 200 °C |
